Assay results as given in US11590142B2, “Oxazolidinone antibiotic compounds and process of preparation” (Bugworks Research, Inc., priority 2018, dated 2023).
In brackets after ≈: the same amount, converted by molar mass.

Experiments:
Assay type in all cases: cell-based
[1] = test system: Acinetobacter baumannii ATCC 19606; test: Minimum Inhibitory Concentration (MIC) in LB media; conditions: ATCC19606
Procedure: (§1) Biological Activity (Antibacterial activity): The compounds of Formula (I) are of interest due to their potent antibacterial effects. […] The medium sterility is checked by incubating at 37° C. for a period of 48 h. Bacterial cultures that are stored as glycerol stocks at -80° C. are sub cultured on LB agar plates to obtain isolated colonies. A single colony of each strain is cultured in LB broth. The cultures are incubated at 37° C., 200 rpm till they reach an optical density (OD at 600 nm) of 0.8 to 1. […] Test compounds are dissolved in dimethyl sulfoxide (DMSO) to a stock concentration of 4 mg/mi. A twofold dilution series of this DMSO stock is prepared in a 96 well V bottom microtitre plate from rows A to H. A 3 μL volume of these dilutions are transferred to a 96-well flat bottom microtitre assay plate. Controls to monitor the effects of DMSO and media sterility are included. Each well is inoculated with 150 μL of the above diluted culture. The plates are incubated at 37° C. overnight in a humidified incubator. The following morning, the plates are read using a Spectrophotometer at 600 nm wavelength.

[2] = test system: Enterococcus faecalis ATCC 29212; test: Minimum Inhibitory Concentration (MIC) in LB media; conditions: ATCC29212, read-out: Minimum Inhibitory Concentration E. faecalis ATCC 29212
Procedure: as §1

[3] = test system: Escherichia coli ATCC 25922; test: Minimum Inhibitory Concentration (MIC) in LB media; conditions: ATCC25922, read-out: Minimum Inhibitory Concentration E. coli ATCC 25922
Procedure: as §1

[4] = test system: Klebsiella pneumoniae ATCC 13883; test: Minimum Inhibitory Concentration (MIC) in LB media; conditions: ATCC13883, read-out: Minimum Inhibitory Concentration K. pneumoniae ATCC 13883
Procedure: as §1

[5] = test system: Pseudomonas aeruginosa ATCC 27853; test: Minimum Inhibitory Concentration (MIC) in LB media; conditions: ATCC27853, read-out: Minimum Inhibitory Concentration P. aurigenosa ATCC 27853
Procedure: as §1

[6] = test system: Staphylococcus aureus ATCC 29213; test: Minimum Inhibitory Concentration (MIC) in LB media; conditions: ATCC29213, read-out: Minimum Inhibitory Concentration S. aureus ATCC 29213
Procedure: as §1

E. coli clinical strains = test: Antibacterial susceptibility studies (MIC50 and MIC90), clinical strains, CLSI guidelines; conditions: for MIC50 / MIC90: Escherichia coli; for MIC50: read-out: MIC50; for MIC90: read-out: MIC90
[7] = test system: A. baumannii clinical strains; test: as above; conditions: for MIC50 / MIC90: Acinetobacter baumannii; for MIC50: read-out: MIC50; for MIC90: read-out: MIC90; for Minimum (MIC): in µg/mL
[8] = test system: K. pneumoniae clinical strains; test: as above; conditions: for MIC50 / MIC90: Klebsiella pneumoniae; for MIC50: read-out: MIC50; for MIC90: read-out: MIC90
[9] = test system: P. aurigenosa clinical strains; test: as above; conditions: for MIC50: read-out: MIC50; for MIC90: read-out: MIC90
[10] = test system: E. cloacae clinical strains; test: as above; conditions: for MIC50 / MIC90: Enterobacter cloacae; for MIC50: read-out: MIC50; for MIC90: read-out: MIC90
E. coli ATCC25922 = test: Antibacterial susceptibility study, reference strain, CLSI guidelines
A. baumannii ATCC19606 = test: as above
K. pneumoniae ATCC13883 = test: as above
P. aurigenosa ATCC27853 = test: as above
[11] = target: human ether a go-go related gene (hERG) K+ channel (Homo sapiens (Human), UniProt Q12809); test: hERG inhibition assay, QPatch HTX automated electrophysiology; conditions: CHO cell line stably expressing hERG, whole-cell patch clamp, maximum test concentration 300 μM
Procedure: The compounds were tested for inhibition of the human ether a go-go related gene (hERG) K+ channel using QPatch HTX automated electrophysiology. […] Compounds were solubilised to 100 mM in DMSO before dilution in HBPS to 300 μM. […] Electrophysiological recordings were made from a Chinese Hamster Ovary cell line stably expressing the full-length hERG potassium channel. Single cell ionic currents were measured in whole-cell patch clamp configuration at room temperature (21-23° C.) using the QPatch HTX platform (Sophion). Intracellular solution contained (mM): 120 KF, 20 KCl, 10 EGTA, 10 HEPES and was buffered to pH 7.3. […] Cells were clamped at a holding potential of −80 mV. Cells were stepped to +20 mV for 2 s then −40 mV for 3s before returning to the holding potential. This sweep was repeated 10 times at 10 s intervals. hERG currents were measured from the tail step and referenced to the holding current. Compounds were then incubated for 2 minutes prior to a second measurement of ion channel current using an identical pulse train.

Sequence of human ether a go-go related gene (hERG) K+ channel (Q12809 whole entry): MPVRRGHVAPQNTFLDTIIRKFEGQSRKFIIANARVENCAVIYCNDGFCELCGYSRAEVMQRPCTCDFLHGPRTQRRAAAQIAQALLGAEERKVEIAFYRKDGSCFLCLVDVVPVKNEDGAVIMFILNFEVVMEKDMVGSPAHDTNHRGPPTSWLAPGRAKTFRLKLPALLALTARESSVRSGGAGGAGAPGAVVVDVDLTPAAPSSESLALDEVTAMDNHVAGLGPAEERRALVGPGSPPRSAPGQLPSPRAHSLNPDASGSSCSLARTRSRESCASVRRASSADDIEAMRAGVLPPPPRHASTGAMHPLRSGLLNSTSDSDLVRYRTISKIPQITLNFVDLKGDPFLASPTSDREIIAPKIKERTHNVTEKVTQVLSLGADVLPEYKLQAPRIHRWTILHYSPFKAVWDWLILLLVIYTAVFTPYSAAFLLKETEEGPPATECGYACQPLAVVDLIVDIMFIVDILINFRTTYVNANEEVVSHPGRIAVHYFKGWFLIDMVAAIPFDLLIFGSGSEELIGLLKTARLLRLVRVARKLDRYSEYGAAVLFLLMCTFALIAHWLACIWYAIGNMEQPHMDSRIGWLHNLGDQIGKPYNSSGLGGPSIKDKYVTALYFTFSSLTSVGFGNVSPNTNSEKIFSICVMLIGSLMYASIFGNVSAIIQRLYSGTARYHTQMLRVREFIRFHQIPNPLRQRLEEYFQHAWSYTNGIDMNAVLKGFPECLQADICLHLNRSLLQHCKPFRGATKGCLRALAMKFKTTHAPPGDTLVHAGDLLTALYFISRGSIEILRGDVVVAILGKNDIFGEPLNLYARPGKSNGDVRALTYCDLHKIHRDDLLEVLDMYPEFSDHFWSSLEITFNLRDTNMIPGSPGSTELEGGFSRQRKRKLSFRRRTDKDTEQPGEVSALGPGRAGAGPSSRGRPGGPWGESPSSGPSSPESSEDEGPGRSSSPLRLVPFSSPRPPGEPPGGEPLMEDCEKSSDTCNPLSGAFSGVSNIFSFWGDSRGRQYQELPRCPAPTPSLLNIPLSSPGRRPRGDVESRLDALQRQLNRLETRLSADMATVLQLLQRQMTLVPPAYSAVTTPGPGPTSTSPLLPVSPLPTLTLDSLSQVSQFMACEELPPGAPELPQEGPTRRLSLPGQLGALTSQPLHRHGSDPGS

Work on Cn1c(=O)cnc2ccc(OCCNC[C@H]3CN(c4cnc5c(n4)NC(=O)CO5)C(=O)O3)nc21 [Compound 7, (S)-6-(5-(((2-((4-methyl-3-oxo-3,4-dihydropyrido[2,3-b]pyrazin-6-yl)oxy)ethyl)amino)methyl)-2-oxooxazolidin-3-yl)-2H-pyrazino[3,2-b][1,4]oxazin-3(4H)-one] yielded an MIC [1] of 0.25 µg/mL (≈ 0.534 µM), an MIC [2] of 0.25 µg/mL (≈ 0.534 µM) and an MIC [3] of 0.06 µg/mL (≈ 0.128 µM). For the same compound, the MIC [4] was 0.13 µg/mL (≈ 0.278 µM), the MIC [5] was 1 µg/mL (≈ 2.13 µM) and the MIC [6] was 0.06 µg/mL (≈ 0.128 µM). It also gave a Minimum (MIC) (E. coli clinical strains) of 0.03 µg/mL, an MIC50 (E. coli clinical strains) of 0.25 µg/mL (≈ 0.534 µM) and an MIC90 (E. coli clinical strains) of 0.5 µg/mL (≈ 1.07 µM). The MIC50 [7] was 0.5 µg/mL (≈ 1.07 µM), the MIC90 [7] was 0.5 µg/mL (≈ 1.07 µM) and the “Minimum (MIC)” value [7] was 0.06. For the same compound, the Minimum (MIC) [8] was 0.125 µg/mL, the MIC50 [8] was 1 µg/mL (≈ 2.13 µM) and the MIC90 [8] was 4 µg/mL (≈ 8.54 µM). For the same compound, the Minimum (MIC) [9] was 0.06 µg/mL, the MIC50 [9] was 0.5 µg/mL (≈ 1.07 µM) and the MIC90 [9] was 2 µg/mL (≈ 4.27 µM). For the same compound, the Minimum (MIC) [10] was 0.06 µg/mL, the MIC50 [10] was 0.5 µg/mL (≈ 1.07 µM) and the MIC90 [10] was 2 µg/mL (≈ 4.27 µM). For the same compound, the ATCC25922 (MIC) (E. coli ATCC25922) was 0.06 µg/mL, the ATCC19606 (MIC) (A. baumannii ATCC19606) was 0.25 µg/mL and the ATCC13883 (MIC) (K. pneumoniae ATCC13883) was 0.13 µg/mL. For the same compound, the ATCC27853 (MIC) (P. aurigenosa ATCC27853) was 1 µg/mL and the IC50 [11] was > 300 µM.

In the case of Cn1c(=O)ccc2ncc(OCCNC[C@H]3CN(c4cnc5c(n4)NC(=O)CS5)C(=O)O3)nc21 [Compound 14, (S)-5-(((2-((5-Methyl-6-oxo-5,6-dihydropyrido[2,3-b]pyrazin-3-yl)oxy)ethyl)amino)methyl)-3-(3-oxo-3,4-dihydro-2H-pyrazino[2,3-b][1,4]thiazin-6-yl)oxazolidin-2-one], the MIC [1] is reported as 0.03 µg/mL (≈ 0.0619 µM), the MIC [2] is reported as 0.03 µg/mL (≈ 0.0619 µM) and the MIC [3] is reported as 0.03 µg/mL (≈ 0.0619 µM). The MIC [4] was 0.03 µg/mL (≈ 0.0619 µM), the MIC [5] was 0.5 µg/mL (≈ 1.03 µM) and the MIC [6] was ≤ 0.03 µg/mL. It also gave a Minimum (MIC) (E. coli clinical strains) of 0.03 µg/mL, an MIC50 (E. coli clinical strains) of 0.06 µg/mL (≈ 0.124 µM) and an MIC90 (E. coli clinical strains) of 0.25 µg/mL (≈ 0.516 µM). For the same compound, the MIC50 [7] was 0.25 µg/mL (≈ 0.516 µM), the MIC90 [7] was 0.5 µg/mL (≈ 1.03 µM) and the “Minimum (MIC)” value [7] was 0.03. It also gave a Minimum (MIC) [8] of 0.03 µg/mL, an MIC50 [8] of 0.25 µg/mL (≈ 0.516 µM) and an MIC90 [8] of 0.5 µg/mL (≈ 1.03 µM). It also gave a Minimum (MIC) [9] of 0.06 µg/mL, an MIC50 [9] of 0.5 µg/mL (≈ 1.03 µM) and an MIC90 [9] of 1 µg/mL (≈ 2.06 µM). For the same compound, the Minimum (MIC) [10] was 0.03 µg/mL, the MIC50 [10] was 0.25 µg/mL (≈ 0.516 µM) and the MIC90 [10] was 0.5 µg/mL (≈ 1.03 µM). For the same compound, the ATCC25922 (MIC) (E. coli ATCC25922) was 0.03 µg/mL, the ATCC19606 (MIC) (A. baumannii ATCC19606) was 0.03 µg/mL and the ATCC13883 (MIC) (K. pneumoniae ATCC13883) was 0.03 µg/mL. The ATCC27853 (MIC) (P. aurigenosa ATCC27853) was 0.5 µg/mL and the IC50 [11] was > 150 µM.
